Measurements as given in publication PMC5048337 (2016).

How the values were obtained:
[1] = test system: c-Kit1 (FAM/TAMRA) (DNA, G4) AGGGAGGGCGCTGGGAGGAGGG; test: FRET melting; settings: 60 mM potassium cacodylate; pH 7.4; 1 μM compound, 0.2 μM oligonucleotide
[2] = test system: h-TERT (FAM/TAMRA) (DNA, G4) GGGGGCTGGGCCGGGGACCCGGGAGGGGTCGGGACGGGGCGGGG; test: FRET melting; settings: 60 mM potassium cacodylate; pH 7.4; 1 μM compound, 0.2 μM oligonucleotide
[3] = test system: bcl2 (FAM/TAMRA) (DNA, G4) AGGGGCGGGCGCGGGAGGAAGGGGGCGGGAGCGGGGCTG; test: FRET melting; settings: 60 mM potassium cacodylate; pH 7.4; 1 μM compound, 0.2 μM oligonucleotide
[4] = test system: c-Kit1 (DNA, G4) AGGGAGGGCGCTGGGAGGAGGG; test: UV-Vis titration, reciprocal plot (Wolfe); settings: K+ 100 mM (KCl); 50 mM Tris-HCl, pH 7.5, 25 °C
[5] = test system: h-TERT (DNA, G4) GGGGGCTGGGCCGGGGACCCGGGAGGGGTCGGGACGGGGCGGGG; test: UV-Vis titration, reciprocal plot (Wolfe); settings: K+ 100 mM (KCl); 50 mM Tris-HCl, pH 7.5, 25 °C
[6] = test system: bcl2 (DNA, G4) AGGGGCGGGCGCGGGAGGAAGGGGGCGGGAGCGGGGCTG; test: UV-Vis titration, reciprocal plot (Wolfe); settings: K+ 100 mM (KCl); 50 mM Tris-HCl, pH 7.5, 25 °C
[7] = test system: c-Kit1 (DNA, G4) AGGGAGGGCGCTGGGAGGAGGG; test: UV-Vis titration, intrinsic method (Rodger and Nordén); settings: K+ 100 mM (KCl); 50 mM Tris-HCl, pH 7.5, 25 °C
[8] = test system: h-TERT (DNA, G4) GGGGGCTGGGCCGGGGACCCGGGAGGGGTCGGGACGGGGCGGGG; test: as above; settings: K+ 100 mM (KCl); 50 mM Tris-HCl, pH 7.5, 25 °C
[9] = test system: bcl2 (DNA, G4) AGGGGCGGGCGCGGGAGGAAGGGGGCGGGAGCGGGGCTG; test: as above; settings: K+ 100 mM (KCl); 50 mM Tris-HCl, pH 7.5, 25 °C

binding [1]	binding [2]	binding [3]	K b [4]	K b [5]	K b [6]	K b [7]	K b [8]	K b [9]	SMILES
yes	yes	yes	–	–	–	–	–	–	CC[N+](CC)(CC)Cc1ccc([O-])c(C=NCCN=Cc2cc(C[N+](CC)(CC)CC)ccc2[O-])c1.[Cu+2]
yes	yes	yes	(2.4 ± 0.5) × 10^5 M^–1	(1.1 ± 0.1) × 10^5 M^–1	(2.0 ± 0.4) × 10^5 M^–1	(4.9 ± 0.3) × 10^4 M^–1	(3.7 ± 0.4) × 10^4 M^–1	(3.4 ± 0.3) × 10^4 M^–1	CC[N+](CC)(CC)Cc1ccc([O-])c(C=NCCN=Cc2cc(C[N+](CC)(CC)CC)ccc2[O-])c1.[Ni+2]
